Test results as given in PubChem BioAssay (NCI).
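Assay format: 96-well plates, 48-hour exposure. TGI marks complete inhibition of growth.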 Where a SMILES comes first, the peptide text is derived from it. The star is where a group is joined. Boc = CC(C)(C)OC(=O)*; OBn = c1ccc(CO*)cc1

Experiments:
Assay in all cases: inhibition of tumour cell growth, NCI panel, 48 h
[1] = test system: SN12C renal
[2] = test system: HCT-15 colon
[3] = test system: CAKI-1 renal
[4] = test system: COLO 205 colon
[5] = test system: HS 578T breast
[6] = test system: SNB-75 CNS
[7] = test system: 786-0 renal
[8] = test system: DU-145 prostate
[9] = test system: CCRF-CEM leukemia
[10] = test system: K-562 leukemia

SMILES	TGI [1]	TGI [2]	TGI [3]	TGI [4]	TGI [5]	TGI [6]	TGI [7]	TGI [8]	TGI [9]	TGI [10]
COc1cccc(C=C2N=C(C)N(n3c(-c4ccccc4)nc4ccccc4c3=O)C2=O)c1	> 100 µM	> 100 µM	> 100 µM	> 100 µM	> 100 µM	> 100 µM	> 100 µM	> 100 µM	> 100 µM	> 100 µM
CCOC(=O)c1cn2c(ccc3sc4ccccc4c(=O)c32)n1	> 100 µM	> 100 µM	> 100 µM	> 100 µM	> 100 µM	> 100 µM	> 100 µM	> 100 µM	> 100 µM	> 100 µM
Cc1ccc(NC(=O)/C(=N\NC(N)=O)c2c(O)c3ccccc3[nH]c2=O)cc1	> 100 µM	> 100 µM	> 100 µM	> 100 µM	> 100 µM	> 100 µM	> 100 µM	> 100 µM	> 100 µM	> 100 µM
CCn1c(=O)c2c3cc(OC(C)=O)ccc3oc2c2ccc(OC(C)=O)cc21	> 100 µM	> 100 µM	> 100 µM	55.6 µM	> 100 µM	45 µM	> 100 µM	> 100 µM	> 100 µM	> 100 µM
O[C@H]1[C@H](O)[C@@H](Cn2nnc(-c3ccccc3)c2-c2ccccc2)OCO[C@@H]1Cn1nnc(-c2ccccc2)c1-c1ccccc1	7.55 µM	11.8 µM	14.2 µM	12.2 µM	33.2 µM	28.9 µM	7.39 µM	23.2 µM	> 34.5 µM	> 100 µM
C[N+](C)(C)C(C1=CCCC1=O)c1ccccc1 (stereo not given)	44 µM	41.5 µM	63.9 µM	> 100 µM	66.3 µM	> 100 µM	39.9 µM	> 100 µM	> 100 µM	> 100 µM
Cc1ccc([N+](=O)[O-])cc1S(=O)(=O)Nc1ccc(C2=NN(S(=O)(=O)c3cc([N+](=O)[O-])ccc3C)C(c3ccco3)C2)cc1 (stereo not given)	> 100 µM	> 100 µM	> 100 µM	> 100 µM	> 100 µM	> 100 µM	> 100 µM	> 100 µM	> 100 µM	> 100 µM
C=CCn1c(-c2ccc(Cl)cc2Cl)csc1=Nc1c(C)n(C)n(-c2ccccc2)c1=O	27.5 µM	30 µM	31.7 µM	25.6 µM	44.7 µM	24.5 µM	26.7 µM	27.3 µM	38.1 µM	8.38 µM
CCOP(C)(=O)/C(Cc1ccc(OC)c(OC)c1)=N\O (stereo not given)	> 100 µM	> 100 µM	> 100 µM	> 100 µM	> 100 µM	> 100 µM	> 100 µM	> 100 µM	> 100 µM	> 100 µM
NC(=O)C1N=NSC1NC(=O)c1ccc([N+](=O)[O-])cc1 (stereo not given)	> 100 µM	> 100 µM	> 100 µM	> 100 µM	> 100 µM	> 100 µM	> 100 µM	> 100 µM	> 100 µM	> 100 µM
CCCCCCCCCCCCCCCCOc1ccc(/C=C/C2=[N+](CCCl)CCO2)cc1	> 100 µM	> 100 µM	> 100 µM	> 100 µM	> 100 µM	> 100 µM	> 100 µM	> 100 µM	> 100 µM	> 100 µM
Cc1c(-c2ccc(O)c(O)c2)oc(=O)c2c(O)cccc12	19.5 µM	17.7 µM	36 µM	30.1 µM	23.9 µM	76 µM	23.4 µM	47.2 µM	> 100 µM	28.1 µM
CC(=O)OC1OC(c2ccoc2)C[C@@]12C1CCC3O[C@]3(C)[C@]1(C)C[C@H](OC(C)=O)[C@H]2C (stereo not given in full)	> 75 µM	> 75 µM	> 75 µM	> 75 µM	> 75 µM	> 75 µM	> 75 µM	> 75 µM	> 75 µM	> 75 µM
CC(C)CC(NC(=O)C(Cc1ccccc1)NC(=O)C(Cc1ccccc1)NC(=O)OC(C)(C)C)C(=O)OCc1ccccc1 (stereo not drawn) (Boc-Phe-Phe-Leu-OBn; configuration not given here)	> 100 µM	> 100 µM	> 100 µM	> 100 µM	> 100 µM	> 100 µM	> 100 µM	> 100 µM	> 100 µM	> 100 µM
Cc1cc(=O)c2ccccc2n1CCCCCCCCCCn1c(C)cc(=O)c2ccccc21	43.3 µM	> 100 µM	36.1 µM	51.9 µM	47.7 µM	87 µM	30.4 µM	41.9 µM	26.7 µM	17.9 µM
COC(=O)C1=COc2c(n(C)c3ccccc23)-c2ccccc21	> 100 µM	> 100 µM	> 100 µM	> 100 µM	> 100 µM	> 100 µM	> 100 µM	> 100 µM	> 100 µM	> 100 µM
